Here are results for twelve molecules from patent US20140135310A1, “SULPHONAMIDE DERIVATIVES OF ALICYCLIC AMINES FOR THE TREATMENT OF CENTRAL NERVOUS SYSTEM DISEASES” (Adamed Sp. z o.o., priority 2011, published 2014).

In general, inhibition refers to the drop in the measured response relative to a control, in per cent.

In one assay the target is T1, 5-HT7 receptor (Homo sapiens, UniProt P34969).
T1 construct: purchased PerkinElmer
Put plainly: Radioligand binding assay, serotoninergic 5-HT7 receptors.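 Note: test compound at 1 µM.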 Conditions: binding assay result in %, Table 5a. The gist of the method: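 Ki values used the Cheng–Prusoff equation, with KD from Scatchard analysis, applied to IC50 from Hill fits of human 5-HT7 radioligand competition curves. Bound radioligand was counted by scintillation, and excess unlabelled ligand set the non-specific binding.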

Assay [1] concerns the target T2, serotonin transporter (SERT) (Homo sapiens, UniProt P31645).
T2 construct: expressed in transfected cells; host or cells: CHO cells
Kind of assay: Radioligand binding assay, serotonin transporter (SERT). To be noted: binding assay, test compound 1×10^−6 M. The gist of the method: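 Values are derived from competition curves fitted by the Hill equation to give IC50, then converted to Ki by Cheng-Prusoff with radioligand Kd from Scatchard analysis. Specific binding equals total minus non-specific (excess cold ligand), counted by scintillation, and is also expressed as percent inhibition of control.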

Assay [2] concerns the target T3, 5-HT1A receptor (rat hippocampus) (Rattus norvegicus, UniProt P19327).
T3 construct: hippocampus; from tissue; host or cells: rat hippocampus
T3 sequence (P19327 1-422): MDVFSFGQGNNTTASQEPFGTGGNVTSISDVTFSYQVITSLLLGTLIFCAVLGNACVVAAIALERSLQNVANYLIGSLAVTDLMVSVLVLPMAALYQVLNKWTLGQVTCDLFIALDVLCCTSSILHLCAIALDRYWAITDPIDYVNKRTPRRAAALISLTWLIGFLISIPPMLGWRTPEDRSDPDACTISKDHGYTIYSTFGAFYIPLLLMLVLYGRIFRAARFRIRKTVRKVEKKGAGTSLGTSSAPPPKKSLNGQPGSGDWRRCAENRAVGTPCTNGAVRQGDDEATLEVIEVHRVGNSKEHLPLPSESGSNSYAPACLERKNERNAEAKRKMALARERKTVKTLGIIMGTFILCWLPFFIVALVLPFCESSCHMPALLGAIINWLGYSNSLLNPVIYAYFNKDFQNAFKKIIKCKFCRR
Kind of assay: Radioligand binding assay, serotoninergic 5-HT1A receptors.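 Note: test compound at 1 µM.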 To be noted: binding assay result in %, Table 5a.

Assay [3] concerns α1 adrenergic receptors (rat cerebral cortex). Kind of assay: Radioligand binding assay, adrenergic α1 receptors. To be noted: test compound 1×10^−6 M. In a few lines: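 Values derive from radioligand displacement, with non-specific binding defined by excess cold ligand and detection by scintillation. Hill-fit IC50s were converted to Ki via Cheng-Prusoff using Scatchard-derived Kd; percent inhibition of control specific binding also reported.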

Assay [4] concerns the target dopaminergic receptors D2 (Homo sapiens, UniProt P14416). Kind of assay: Radioligand binding assay, dopaminergic D2 receptors. To be noted: binding assay, test compound 1×10^−6 M. The gist of the method: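 Values derive from competition curves: percent inhibition of control specific binding was fitted by Hill non-linear regression for IC50, and Ki calculated with Cheng–Prusoff from radioligand concentration and KD (Scatchard). Bound ligand was detected by scintillation counting.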

In assay [5] the target is dopaminergic receptors D3 (Homo sapiens, UniProt P35462). Kind of assay: Radioligand binding assay, dopaminergic D3 receptors. To be noted: test compound 1×10^−6 M. The gist of the method: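 Scintillation read-out. Specific = total − nonspecific (excess cold ligand). Data as % of control specific binding / % inhibition; IC50 by Hill fit; Ki = IC50/(1+L/KD), KD from Scatchard plot.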

Another assay has as its target T4, 5-HT2A receptor (Homo sapiens, UniProt P28223).
T4 construct: purchased PerkinElmer
Kind of assay: Radioligand binding assay, serotoninergic 5-HT2A receptors. To be noted: binding assay result in %, Table 5a. The gist of the method:
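Competition curves from scintillation-counted specific binding (total minus binding with excess unlabelled ligand) were Hill-fitted to give IC50, converted to Ki via Cheng-Prusoff using Scatchard-derived Kd.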

For another assay, the target named is T5, 5-HT6 receptor (Homo sapiens, UniProt P50406).
T5 construct: purchased PerkinElmer
Kind of assay: Radioligand binding assay, serotoninergic 5-HT6 receptors.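 Note: test compound at 1 µM.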 Conditions: binding assay result in %, Table 5a. In a few lines:
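Values are Ki from Cheng–Prusoff, taking IC50 from Hill nonlinear regression of competition curves and KD from a Scatchard plot. Specific binding was total minus binding with excess unlabelled ligand. Radioligand displacement was detected by scintillation counting, and data were also reported as percent of control specific binding.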

T4 sequence (P28223 whole entry): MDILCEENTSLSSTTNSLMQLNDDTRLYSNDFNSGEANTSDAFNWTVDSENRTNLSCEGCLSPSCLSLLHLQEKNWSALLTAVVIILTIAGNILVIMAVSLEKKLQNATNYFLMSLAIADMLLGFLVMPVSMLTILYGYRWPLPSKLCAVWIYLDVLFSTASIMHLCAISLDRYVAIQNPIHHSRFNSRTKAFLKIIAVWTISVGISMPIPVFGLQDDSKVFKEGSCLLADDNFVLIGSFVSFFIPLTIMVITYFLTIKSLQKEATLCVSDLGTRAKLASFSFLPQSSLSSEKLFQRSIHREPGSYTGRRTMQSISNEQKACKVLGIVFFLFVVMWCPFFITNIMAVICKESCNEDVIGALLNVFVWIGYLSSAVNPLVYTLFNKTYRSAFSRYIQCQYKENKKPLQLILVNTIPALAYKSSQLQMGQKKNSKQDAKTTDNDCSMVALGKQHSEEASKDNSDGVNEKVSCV
T1 sequence (P34969 whole entry): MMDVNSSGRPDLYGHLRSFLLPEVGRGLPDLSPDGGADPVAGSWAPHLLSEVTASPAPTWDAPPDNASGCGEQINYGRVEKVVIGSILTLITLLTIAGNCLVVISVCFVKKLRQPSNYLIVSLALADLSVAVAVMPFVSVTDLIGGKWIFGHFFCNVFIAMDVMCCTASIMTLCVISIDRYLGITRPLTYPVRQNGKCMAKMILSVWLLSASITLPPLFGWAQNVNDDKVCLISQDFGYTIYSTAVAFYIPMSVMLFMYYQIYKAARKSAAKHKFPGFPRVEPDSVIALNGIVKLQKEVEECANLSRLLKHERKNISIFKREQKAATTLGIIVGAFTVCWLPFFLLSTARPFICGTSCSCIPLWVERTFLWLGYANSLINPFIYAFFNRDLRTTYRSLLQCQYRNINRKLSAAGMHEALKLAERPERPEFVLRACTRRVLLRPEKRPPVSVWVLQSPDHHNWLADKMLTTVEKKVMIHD
T2 sequence (P31645 whole entry): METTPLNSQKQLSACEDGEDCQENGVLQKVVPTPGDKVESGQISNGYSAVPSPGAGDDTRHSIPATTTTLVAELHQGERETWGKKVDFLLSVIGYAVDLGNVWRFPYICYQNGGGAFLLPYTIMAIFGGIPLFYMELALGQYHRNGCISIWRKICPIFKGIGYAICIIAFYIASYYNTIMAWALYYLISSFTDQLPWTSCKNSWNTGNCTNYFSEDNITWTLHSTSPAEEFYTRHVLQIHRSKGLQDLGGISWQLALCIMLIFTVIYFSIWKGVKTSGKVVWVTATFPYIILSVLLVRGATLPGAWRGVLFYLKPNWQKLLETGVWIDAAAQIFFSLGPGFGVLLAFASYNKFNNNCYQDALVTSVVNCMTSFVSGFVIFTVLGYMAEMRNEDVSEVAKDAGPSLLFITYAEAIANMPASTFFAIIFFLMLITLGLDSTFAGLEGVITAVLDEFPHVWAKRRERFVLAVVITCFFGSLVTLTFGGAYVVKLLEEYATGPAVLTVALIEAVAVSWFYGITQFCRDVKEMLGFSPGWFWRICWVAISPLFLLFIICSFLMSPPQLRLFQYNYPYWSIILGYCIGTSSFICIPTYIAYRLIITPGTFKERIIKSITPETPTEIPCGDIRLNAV
Chain of dopaminergic receptors D2 (P14416 whole entry): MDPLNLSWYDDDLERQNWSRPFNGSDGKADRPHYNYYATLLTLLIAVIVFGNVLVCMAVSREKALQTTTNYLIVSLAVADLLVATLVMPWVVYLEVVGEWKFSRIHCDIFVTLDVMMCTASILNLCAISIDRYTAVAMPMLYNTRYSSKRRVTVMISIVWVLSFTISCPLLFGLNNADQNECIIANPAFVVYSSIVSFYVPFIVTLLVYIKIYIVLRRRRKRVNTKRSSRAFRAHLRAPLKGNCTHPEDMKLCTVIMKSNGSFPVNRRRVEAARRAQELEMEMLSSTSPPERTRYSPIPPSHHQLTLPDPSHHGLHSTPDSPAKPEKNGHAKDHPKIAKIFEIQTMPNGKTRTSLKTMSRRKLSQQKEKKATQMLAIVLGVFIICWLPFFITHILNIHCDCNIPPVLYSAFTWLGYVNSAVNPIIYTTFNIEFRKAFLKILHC
Chain of dopaminergic receptors D3 (P35462 whole entry): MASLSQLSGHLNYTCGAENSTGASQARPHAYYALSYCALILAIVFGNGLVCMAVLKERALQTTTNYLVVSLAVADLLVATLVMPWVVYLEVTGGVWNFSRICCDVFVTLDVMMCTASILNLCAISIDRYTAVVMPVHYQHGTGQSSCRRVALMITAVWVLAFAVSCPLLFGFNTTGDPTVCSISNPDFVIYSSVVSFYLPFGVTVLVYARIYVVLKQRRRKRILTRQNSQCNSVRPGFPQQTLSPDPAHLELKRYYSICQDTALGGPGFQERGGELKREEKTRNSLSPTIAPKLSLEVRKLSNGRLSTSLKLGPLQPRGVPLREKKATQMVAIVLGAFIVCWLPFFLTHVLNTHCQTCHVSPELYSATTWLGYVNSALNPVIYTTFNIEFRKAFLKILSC
T5 sequence (P50406 whole entry): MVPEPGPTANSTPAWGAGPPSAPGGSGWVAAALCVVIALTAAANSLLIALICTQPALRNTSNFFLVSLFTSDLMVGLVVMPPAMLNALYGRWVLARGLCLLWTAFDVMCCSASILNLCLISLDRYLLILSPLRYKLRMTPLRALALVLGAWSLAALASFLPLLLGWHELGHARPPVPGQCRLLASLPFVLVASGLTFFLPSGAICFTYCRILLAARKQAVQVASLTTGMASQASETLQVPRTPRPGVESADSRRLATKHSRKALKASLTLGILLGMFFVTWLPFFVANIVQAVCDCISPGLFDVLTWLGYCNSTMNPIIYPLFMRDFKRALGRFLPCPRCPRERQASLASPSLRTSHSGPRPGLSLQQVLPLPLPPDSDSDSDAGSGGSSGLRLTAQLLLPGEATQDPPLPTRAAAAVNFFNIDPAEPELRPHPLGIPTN

In the case of `Cn1ccc2c(S(=O)(=O)NCC3CN(CCOc4cccc5ccccc45)C3)cccc21` [Compound 170, 1-Methyl-N-[[1-[2-(1-naphthyloxy)ethyl]azetidin-3-yl]methyl]indole-4-sulphonamide], the inhibition at 1 µM on 5-HT7 receptor was found to be 104%; in assay [1], 93%; in assay [2], 90%; in assay [4], 79%; in assay [5], 98%; on 5-HT2A receptor it was 72%. Also, the inhibition at 1 µM on 5-HT6 receptor turned out to be 93%. Besides, in assay [3], the “α1 [%]” value came to 63%.

As for `O=S(=O)(NCC1CN(CCOc2cccc3ccccc23)C1)c1csc2ccccc12` [Compound 171, N-[[1-[2-(1-Naphthyloxy)ethyl]azetidin-3-yl]methyl]benzothiophene-3-sulphonamide], the inhibition at 1 µM was 94% on 5-HT7 receptor; 44% in assay [1]; 92% in assay [2]; 72% in assay [4]; 99% in assay [5]; 101% at 5-HT2A receptor. On 5-HT6 receptor, the inhibition at 1 µM came out at 96%. Also, in assay [3], the “α1 [%]” value worked out at 50%.

`O=S(=O)(NCC1CN(CCOc2cccc3ccccc23)C1)c1ccc(F)c(Cl)c1` [Compound 172, 3-Chloro-4-fluoro-N-[[1-[2-(1-naphthyloxy)ethyl]azetidin-3-yl]methyl]-benzenesulphonamide]: the inhibition at 1 µM at 5-HT7 receptor worked out at 92%; in assay [1], 46%; in assay [2], 85%; in assay [4], 76%; in assay [5], 100%; on 5-HT2A receptor, 71%. Besides, the inhibition at 1 µM at 5-HT6 receptor is 96%. Moreover, the “α1 [%]” value in assay [3] is on record as 40%.

In the case of `O=S(=O)(NCC1CN(CCOc2cccc3ccccc23)C1)c1ccc(F)c(F)c1` [Compound 173, 3,4-Difluoro-N-[[1-[2-(1-naphthyloxy)ethyl]azetidin-3-yl]methyl]-benzenesulphonamide], the inhibition at 1 µM was 105% on 5-HT7 receptor; 50% in assay [1]; 83% in assay [2]; 59% in assay [4]; 99% in assay [5]; 73% on 5-HT2A receptor. The inhibition at 1 µM at 5-HT6 receptor was determined as 91%. In addition, the “α1 [%]” value in assay [3] was found to be 56%.

Regarding `O=S(=O)(NCC1CN(CCOc2cccc3c2OCCO3)C1)c1ccc2cc(Cl)ccc2c1` [Compound 174, 6-Chloro-N-[[1-[2-(2,3-dihydro-1,4-benzodioxin-5-yloxy)ethyl]azetidin-3-yl]methyl]naphthalene-2-sulphonamide], the inhibition at 1 µM was 90% at 5-HT7 receptor; 20% in assay [1]; 91% in assay [2]; 25% in assay [4]; 22% in assay [5]; 44% at 5-HT2A receptor. The inhibition at 1 µM on 5-HT6 receptor was determined as 64%. Further, the “α1 [%]” value in assay [3] came to 15%.

In the case of `Cc1c(S(=O)(=O)NCC2CN(CCOc3cccc4c3OCCO4)C2)sc2ccc(Cl)cc12` [Compound 175, 5-Chloro-N-[[1-[2-(2,3-dihydro-1,4-benzodioxin-5-yloxy)ethyl]azetidin-3-yl]methyl]-3-methyl-benzothiophene-2-sulphonamide], the inhibition at 1 µM at 5-HT7 receptor was found to be 92%; in assay [1], 19%; in assay [2] it was 75%; in assay [4] it was 68%; in assay [5] it was 78%; at 5-HT2A receptor, 105%. The inhibition at 1 µM at 5-HT6 receptor worked out at 95%. In assay [3], the “α1 [%]” value worked out at 50%.

Regarding `O=S(=O)(NCC1CN(CCOc2cccc3c2OCCO3)C1)c1cccc2ccccc12` [Compound 176, N-[[1-[2-(2,3-Dihydro-1,4-benzodioxin-5-yloxy)ethyl]azetidin-3-yl]methyl]-naphthalene-1-sulphonamide], the inhibition at 1 µM was 87% at 5-HT7 receptor; -2% in assay [1]; 98% in assay [2]; 21% in assay [4]; 8% in assay [5]; 35% on 5-HT2A receptor. At 5-HT6 receptor, the inhibition at 1 µM worked out at 14%. Besides, the “α1 [%]” value in assay [3] turned out to be 51%.

For `O=S(=O)(NCC1CN(CCOc2cccc3c2OCCO3)C1)c1ccc2ccccc2c1` [Compound 177, N-[[1-[2-(2,3-Dihydro-1,4-benzodioxin-5-yloxy)ethyl]azetidin-3-yl]methyl]-naphthalene-2-sulphonamide], the inhibition at 1 µM came out at 88% on 5-HT7 receptor; 25% in assay [1]; 97% in assay [2]; 13% in assay [4]; 42% in assay [5]; 66% on 5-HT2A receptor. Further, the inhibition at 1 µM on 5-HT6 receptor stood at 44%. Moreover, in assay [3], the “α1 [%]” value is 55%.

In the case of `O=S(=O)(NCC1CN(CCOc2cccc3c2OCCO3)C1)c1ccc(-c2ccccc2)cc1` [Compound 178, N-[[1-[2-(2,3-Dihydro-1,4-benzodioxin-5-yloxy)ethyl]azetidin-3-yl]methyl]-4-phenyl-benzenesulphonamide], the inhibition at 1 µM at 5-HT7 receptor is 89%; in assay [1], -6%; in assay [2], 96%; in assay [4], 8%; in assay [5] it was 25%; on 5-HT2A receptor it was 73%. On 5-HT6 receptor, the inhibition at 1 µM was 21%. For the same molecule, in assay [3], the “α1 [%]” value turned out to be 20%.

`O=S(=O)(NCC1CN(CCOc2cccc3c2OCCO3)C1)c1ccc(Cl)cc1` [Compound 179, 4-Chloro-N-[[1-[2-(2,3-dihydro-1,4-benzodioxin-5-yloxy)ethyl]azetidin-3-yl]methyl]benzenesulphonamide]: the inhibition at 1 µM on 5-HT7 receptor is 90%; in assay [1], -8%; in assay [2], 92%; in assay [4], 6%; in assay [5], 40%; on 5-HT2A receptor it was 57%. Besides, the inhibition at 1 µM on 5-HT6 receptor was -15%. In addition, the “α1 [%]” value in assay [3] was determined as 61%.

Turning to `O=S(=O)(NCC1CN(CCOc2cccc3c2OCCO3)C1)c1ccc(C(F)(F)F)cc1` [Compound 180, N-[[1-[2-(2,3-Dihydro-1,4-benzodioxin-5-yloxy)ethyl]azetidin-3-yl]methyl]-4-(trifluoromethyl)benzenesulphonamide], the inhibition at 1 µM at 5-HT7 receptor was found to be 94%; in assay [1] it was 14%; in assay [2], 93%; in assay [4] it was 23%; in assay [5], 46%; at 5-HT2A receptor, 68%. The inhibition at 1 µM on 5-HT6 receptor turned out to be 31%. Further, the “α1 [%]” value in assay [3] is 39%.

On to `O=S(=O)(NCC1CN(CCOc2cccc3c2OCCO3)C1)c1ccc(F)cc1` [Compound 182, N-[[1-[2-(2,3-Dihydro-1,4-benzodioxin-5-yloxy)ethyl]azetidin-3-yl]methyl]-4-fluoro-benzenesulphonamide], for which the inhibition at 1 µM was 95% on 5-HT7 receptor; -7% in assay [1]; 63% in assay [2]; 33% in assay [4]; 45% in assay [5]; 61% on 5-HT2A receptor. Moreover, at 5-HT6 receptor, the inhibition at 1 µM came to 31%. The “α1 [%]” value in assay [3] is on record as 78%.
